Where two headings read alike, the source gives them in different places. Where a SMILES comes first, the peptide text is derived from it. Where no end group is shown, it is not given here.

Assay [1] deals with IFN-γ-producing CD8+ T cells. Description: Intracellular IFN-γ staining (ICS) of spleen CD8+ T cells after immunization with liposomal peptides. Type of assay: in vivo, HLA-A*24:02 transgenic mice. Particulars: mice immunized with liposomal peptides + CpG; result in words.
The target in assay [2] is T1, HLA-A*24:02 (Homo sapiens, UniProt P04439, D101N/D140Y/D185E/E176V/E190D/F33S/G103R/G107R/I119L/I121M/I306V/K335N/L105A/L180Q/L300P/N151K/N90K/Q86E/Q94H/R106L/R138H/R89G/T104I/T345S/V100E/W191G/Y123F). Put plainly: cell-based. Type of assay: binding.
The next assay has as its system human lymphocytes. The note with it: epitopes of same sequence submitted as HLA-A*24:02-restricted pp1a-specific CTL epitopes; ref Virus Pathogen Database and Analysis Resource; cited from earlier work.
In assay [3] the target is T1, HLA-A*24:02. The note with it: ref Virus Pathogen Database and Analysis Resource; cited from earlier work.
The subject of a further assay is CD107a+ CD8+ T cells. Description: Comparison of conserved top 4 peptides, CD107a on CD8+ T cells. Type of assay: in vivo, HLA-A*24:02 transgenic mice. Particulars: eight mice immunized with 4-peptide mixture in liposomes with CpG; spleen cells + 50 μM peptide 6 h; one-way ANOVA; Fig. 5B.
In a further assay the test system is IFN-γ+ CD8+ T cells. Description: Comparison of conserved top 4 peptides, ICS after immunization with 4-peptide mixture in liposomes. The assay is classed as in vivo, HLA-A*24:02 transgenic mice. The note with it: eight mice immunized with mixture of pp1a-1417, -3104, -3792, -4229 in liposomes with CpG; spleen cells + peptide 5 h; one-way ANOVA; Fig. 5A.
Setting [4] is: […], mean ± SD, triplicate, repeated twice, ND = not detected, read-out: BL50 (half-maximal binding level, peptide concentration that yields 50% relative binding).

As to `CC(C)C[C@H](NC(=O)[C@H](CC(C)C)NC(=O)[C@H](CS)NC(=O)[C@H](Cc1ccccc1)NC(=O)[C@H](CC(C)C)NC(=O)CNC(=O)[C@H](Cc1ccccc1)NC(=O)[C@H](Cc1ccc(O)cc1)NC(=O)[C@@H](N)CS)C(=O)O` [pp1a-3792] (H-CYFGLFCLL-OH; N-terminus and C-terminus assumed), the “detection of IFN-γ-producing CD8+ T cells in immunized mice” value (from here on “detection”) in assay [1] was “significant numbers”.
Regarding AFEKMVSLL [pp1a-3907], on HLA-A*24:02 [2] (setting [4]), the EC50 is 114 ± 3.1 µM.
For the compound AFGLVAEWF [pp1a-2320], the EC50 at HLA-A*24:02 [2] (setting [4]) was 135 ± 39.1 µM.
The same measure, in the same setting: the figure for AFLPFAMGI [pp1a-3610] is 183 ± 8.2 µM; for AFVETVKGL [pp1a-486] it is 278 ± 49.8 µM; for AFYILPSII [pp1a-1352] it is 64.4 ± 9.2 µM.
As to AYILFTRFF [pp1a-2330], the EC50 on HLA-A*24:02 [2] (setting [4]) turned out to be 0.8 ± 0.1 µM. Further, the “detection” value in assay [1] was “significant numbers”. Besides, the “result in T cell assays using human lymphocytes” value (from here on “result in T cell assays”) in the assay with human lymphocytes is listed as “positive”.
With DFVKATCEF [pp1a-335], at HLA-A*24:02 [2] (setting [4]), the EC50 turned out to be 127 ± 3.8 µM.
On to DYGARFYFY [pp1a-1417], for which, on HLA-A*24:02 [2] (setting [4]), the EC50 was determined as 16.1 ± 0.8 µM. For the same compound, the “detection” value in assay [1] is recorded as “significant numbers”.
Turning to DYKHYTPSF [pp1a-1971], the EC50 at HLA-A*24:02 [2] (setting [4]) was 58.4 ± 11.7 µM.
DYLVSTQEF [pp1a-3812] yielded an EC50 on HLA-A*24:02 [2] (SD) of 0.9 ± 0.1 µM.
Consider DYQGKPLEF [pp1a-954], for which the EC50 on HLA-A*24:02 [2] (setting [4]) was 126 ± 23.9 µM.
Regarding FFSYFAVHF [pp1a-2350], on HLA-A*24:02 [2] (setting [4]), the EC50 was found to be 1.4 ± 0.1 µM. Also, the “detection” value in assay [1] is “significant numbers”.
In the same order, the values of FYENAFLPF [pp1a-3606] are 0.02 ± 0.01 µM and “significant numbers”.
FYLTNDVSF [pp1a-3114]: the EC50 at HLA-A*24:02 [2] (setting [4]) came out at 0.01 µM. Moreover, the “detection” value in assay [1] is on record as “significant numbers”. Further, the “result in the binding assay” value at HLA-A*24:02 [3] is recorded as “positive”. The “result in T cell assays” value in the assay with human lymphocytes was “negative”.
Consider FYVLGLAAI [pp1a-2338], for which, on HLA-A*24:02 [2] (setting [4]), the EC50 came out at 0.7 ± 0.1 µM. In assay [1], the “detection” value is reported as “significant numbers”.
Turning to FYWFFSNYL [pp1a-3153], on HLA-A*24:02 [2] (setting [4]), the EC50 was determined as 3.9 ± 1.3 µM. In assay [1], the “detection” value is listed as “significant numbers”.
The corresponding values for GYKSVNITF [pp1a-835] are 0.1 µM and “significant numbers”.
For the compound GYVTHGLNL [pp1a-1451], the EC50 at HLA-A*24:02 [2] (setting [4]) came out at 109 ± 8.9 µM.
Same read-out and setting: then IFGTVYEKL [pp1a-616], with 122 ± 18 µM.
IYLYLTFYL [pp1a-3108]: the EC50 on HLA-A*24:02 [2] (setting [4]) amounted to 100 ± 13.8 µM.
As to KFKEGVEFL [pp1a-634], the EC50 at HLA-A*24:02 [2] (setting [4]) was 79.6 ± 6.6 µM. Also, the “detection” value in assay [1] is “significant numbers”.
On to KFLTENLLL [pp1a-1247], for which the EC50 on HLA-A*24:02 [2] (setting [4]) is 33.4 ± 1.9 µM.
KFVCDNIKF [pp1a-1929]: at HLA-A*24:02 [2] (setting [4]), the EC50 amounted to 61.7 ± 1.6 µM.
Take KYLYFIKGL [pp1a-4226]: the EC50 at HLA-A*24:02 [2] (SD) is 109 ± 1.3 µM.
For LFLMSFTVL [pp1a-3084], the EC50 at HLA-A*24:02 [2] (setting [4]) was 100 ± 7.6 µM.
Consider LFVAAIFYL [pp1a-2781], for which the EC50 at HLA-A*24:02 [2] (setting [4]) turned out to be 183 ± 8.2 µM.
In the case of LYCIDGALL [pp1a-1845], on HLA-A*24:02 [2] (setting [4]), the EC50 was 38.5 ± 8.2 µM. Besides, in assay [1], the “detection” value was “significant numbers”.
As for LYDKLVSSF [pp1a-1182], at HLA-A*24:02 [2] (setting [4]), the EC50 is 1 ± 0.3 µM. Further, in assay [1], the “detection” value was “significant numbers”. Also, the “result in T cell assays” value with human lymphocytes is “positive”.
As to LYIDINGNL [pp1a-1255], the EC50 at HLA-A*24:02 [2] (setting [4]) is 40.4 ± 8.6 µM. Besides, the “detection” value in assay [1] is “significant numbers”.
Take MFDAYVNTF [pp1a-2590]: the EC50 on HLA-A*24:02 [2] (setting [4]) worked out at 7.7 ± 0.6 µM. Besides, the “detection” value in assay [1] is on record as “significant numbers”.
For the compound MFLARGIVF [pp1a-3752], the EC50 on HLA-A*24:02 [2] (setting [4]) came out at 24.2 ± 1.5 µM. Also, the “detection” value in assay [1] is “significant numbers”.
MFTPLIQPI [pp1a-3030]: the EC50 on HLA-A*24:02 [2] (setting [4]) turned out to be 251 ± 88.7 µM.
On to MFVKHKHAF [pp1a-3627], for which the EC50 on HLA-A*24:02 [2] (setting [4]) came out at 241 ± 33.6 µM.
On to MYASAVVLL [pp1a-3684], for which the EC50 on HLA-A*24:02 [2] (setting [4]) came out at 0.4 ± 0.1 µM. Besides, the “detection” value in assay [1] is “significant numbers”. In addition, the “result in the binding assay” value on HLA-A*24:02 [3] is on record as “positive”. Further, the “result in T cell assays” value in the assay with human lymphocytes is recorded as “negative”.
As for NFNQHEVLL [pp1a-1137], the EC50 at HLA-A*24:02 [2] (setting [4]) was determined as 55.3 ± 2 µM.
Regarding NFSKLINII [pp1a-2222], at HLA-A*24:02 [2] (setting [4]), the EC50 is 181 ± 32.5 µM.
As to NFTIKGSFL [pp1a-3396], at HLA-A*24:02 [2] (setting [4]), the EC50 worked out at 134 ± 7.6 µM.
On the same count and under the same terms, then NYLKRRVVF [pp1a-3159], with 114 ± 5.3 µM; and PFWITIAYI [pp1a-3137], with 103 ± 8.4 µM.
The same measure, in the same setting: the figure for PYCYDTNVL [pp1a-2931] is 6.8 ± 1 µM; for QYELKHGTF [pp1a-1813] it is 141 ± 8 µM; for QYGRSGETL [pp1a-96] it is 124 ± 10.9 µM.
For SYGADLKSF [pp1a-135], at HLA-A*24:02 [2] (setting [4]), the EC50 came to 104 ± 17.7 µM.
The same measure, in the same setting: then SYLFQHANL [pp1a-1733], with 3 ± 0.4 µM; and SYSGQSTQL [pp1a-1515], with 45.8 ± 10.5 µM; and TFCAGSTFI [pp1a-2457], with 127 ± 20.2 µM.
TFDNLKTLL [pp1a-1552]: on HLA-A*24:02 [2] (setting [4]), the EC50 is 96.1 ± 1.6 µM.
The same measure, in the same setting: then TFFKLVNKF [pp1a-677], with 55.9 ± 3.3 µM; and TFHLDGEVI [pp1a-1543], with 100 ± 6.8 µM.
In the case of TFNGECPNF [pp1a-265], the EC50 at HLA-A*24:02 [2] (setting [4]) turned out to be 1.7 ± 0.4 µM. In addition, the “detection” value in assay [1] is reported as “significant numbers”. Further, the “result in T cell assays” value in the assay on human lymphocytes is “positive”.
For the compound VFLFVAAIF [pp1a-2779], the EC50 at HLA-A*24:02 [2] (setting [4]) turned out to be 8.6 ± 0.4 µM. Also, the “detection” value in assay [1] is recorded as “significant numbers”.
With VYEKLKPVL [pp1a-620], the EC50 at HLA-A*24:02 [2] (setting [4]) came out at 264 ± 21.4 µM.
For the compound VYSVIYLYL [pp1a-3104], the EC50 at HLA-A*24:02 [2] (setting [4]) is 0.5 µM. In addition, the “dominance in CD107a induction of CD8+ T cells among conserved top 4 peptides” value in the assay with CD107a+ CD8+ T cells was “statistically predominant over pp1a-1417 and -4229”. In addition, in the assay on IFN-γ+ CD8+ T cells, the “dominance in induction of peptide-specific IFN-γ+ CD8+ T cells among conserved top 4 peptides” value is recorded as “far superior to all other peptides”. The “detection” value in assay [1] is “significant numbers”. Further, at HLA-A*24:02 [3], the “result in the binding assay” value is recorded as “positive”. In the assay on human lymphocytes, the “result in T cell assays” value is “negative”.
For the compound WFLLLSVCL [pp1a-2232], on HLA-A*24:02 [2] (setting [4]), the EC50 was found to be 279 ± 12.6 µM.
YFIKGLNNL [pp1a-4229]: the EC50 at HLA-A*24:02 [2] (setting [4]) is 32.1 ± 1.9 µM. Further, the “detection” value in assay [1] is reported as “significant numbers”.
For the compound YFTEQPIDL [pp1a-1906], at HLA-A*24:02 [2] (setting [4]), the EC50 was found to be 113 ± 9.4 µM.
Same read-out and setting: the figure for YYHTTDPSF [pp1a-1634] is 0.04 µM.
As to YYKKDNSYF [pp1a-1899], the EC50 at HLA-A*24:02 [2] (setting [4]) was 0.3 µM. Besides, the “detection” value in assay [1] is on record as “significant numbers”. Also, the “result in T cell assays” value in the assay with human lymphocytes is “positive”.
Consider YYRSLPGVF [pp1a-3010], for which the EC50 on HLA-A*24:02 [2] (setting [4]) came out at 122 ± 18.8 µM.
On the same count and under the same terms, then YYTSNPTTF [pp1a-1536], with 0.05 µM.

The values are drawn from paper PMC8694169 (Microbiology Spectrum, 2021).
